Earlier results, collected in US11759418B1, “Composition for treating wounds, dermatitis, inflammation, and irritation” (Chrism Products, Inc., priority 2016, dated 2023).
Where two headings read alike, the source gives them in different places.

Legend:
[1] = system: wound healing process; details: results from histological analyses
[2] = chemically synthesized bulk allantoin
[3] = system: skin

For `NC(=O)NC1NC(=O)NC1=O` (stereo not shown) [Allantoin, 5-ureidohydantoin], the “effect on wound healing process” value [1] is given as “benefits the wound healing process”, the safety / toxicity [2] is given as “safe, non-toxic” and the Concentration (5% Glycerin in water, 20° C.) is given as “ca 0.8%”. For the same molecule, the Concentration (50% Isopropanol in water, 25° C.) was “ca. 0.3%”, the Concentration (Ethanol, 20° C.) was “ca. 0.1%” and the Concentration (Propylene glycol, 25° C.) was “ca. 0.3%”. For the same molecule, the Concentration (Water, 20° C.) was “ca. 0.4%” and the Concentration (Water, 75° C.) was “ca. 4.0%”.

For “benzyl-dimethyl-tridecylazanium [Benzalkonium Chloride]”, the “concentration producing mild skin irritation” value ([3]; clinical studies, dermal use) is given as no less than 5% and the “concentration safe for dermal use” value ([3]; in vivo) is given as “up to 0.5%”.
